Test results published in US11872202B2, “Pleuromutilin cinnamic acid ester compounds with activities against antibiotic-resistant infections” (SHAANXI UNIVERSITY OF SCIENCE AND TECHNOLOGY, priority 2021, dated 2024).
In brackets after ≈: the same amount, converted by molar mass. Like-named read-outs stand apart in the source and are kept apart here.

Legend:
Type in all cases: cell-based
[1] = test system: Escherichia coli ATCC25922; test: MIC, micro-broth dilution method
Method: (§1) The minimum inhibitory concentration (MIC) of pleuromutilin cinnamate easters and their starting materials was tested by a micro-broth dilution method, with retamoline, vornimulin and tiamulin as positive controls.
(§2) The experimental strains included Gram-positive bacteria: Methicillin-sensitive Staphylococcus epidermidis ATCC12228, Staphylococcus aureus ATCC29213 and ATCC25923, and Methicillin-resistant Staphylococcus aureus ATCC33591; Gram-negative bacteria: Acinetobacter baumannii ATCC19606 and E. coli Bacillus ATCC25922 (the strains used were from the American type culture collection (ATCC)).

[2] = test system: Methicillin-sensitive Staphylococcus epidermidis ATCC12228; test: MIC, micro-broth dilution method; details: for inhibitory effect compared with the three tested positive controls: methicillin-sensitive Staphylococcus epidermidis, statement in words from Table 1
Method: as §1, §2

[3] = test system: Staphylococcus aureus ATCC29213; test: MIC, micro-broth dilution method
Method: as §1, §2

[4] = test system: Methicillin-resistant Staphylococcus aureus ATCC33591; test: MIC, micro-broth dilution method
Method: as §1, §2

[5] = test system: Acinetobacter baumannii ATCC19606; test: MIC, micro-broth dilution method; details: for inhibition compared with tiamulin: statement in words from Table 1
Method: as §1, §2

[6] = test system: Staphylococcus aureus ATCC25923; test: MIC, micro-broth dilution method
Method: as §1, §2

[7] = In vitro cytotoxicity, CCK-8 method; details: human, read-out: median inhibitory concentration (IC50), cytotoxicity
Method: The in vitro cytotoxicity of pleuromutilin easters was determined by a CCK-8 method (the kit used was purchased from Shanghai Xige Biotechnology Co., Ltd.). Take healthy HepG2, HEK293 and A549 cell culture fluids (the cells used were from the American type culture collection (ATCC), and the used cell culture fluids were purchased from Thermo Fisher Scientific (China) Co., Ltd.), inoculate in a sterile 96-well cell culture plate, 180 μL/well, ensure that the number of cells is 1*10^4/well, place in a 37° C. CO2 incubator with a volume fraction of 5%, and culture for 24 h until the cells completely adhered. Add the test and control solutions, 20 µL per well, set 6 duplicate wells in parallel, and incubate at 37° C. in a CO2 incubator with a volume fraction of 5% at 37° C. for 24 h, and observe the cells under a microscope. Add 20 μL of 5 g/L CCK-8 solution to each well, and continue to culture for 4 h. The culture was terminated, the culture medium in the wells was gently aspirated, 100 μL of dimethyl sulfoxide was added to each well, and the wells were shaken at low speed for 10 min on a shaker to fully dissolve the crystals. The absorbance value was measured, and the half inhibitory concentration (IC50) was then calculated. The cytotoxicity to HepG2, HEK293 and A549 cells was evaluated according to the half inhibitory concentration (IC50).

[8] = test system: the different bacteria tested; test: MIC, micro-broth dilution method, overall comparison over all strains; details: statement in words from Table 1
Method: as §1, §2

[9] = Escherichia coli ATCC25922, 37° C., 20-22 h, read-out: Minimum inhibitory concentration
[10] = Methicillin-sensitive Staphylococcus epidermidis ATCC12228, 37° C., 20-22 h, read-out: Minimum inhibitory concentration
[11] = Staphylococcus aureus ATCC29213, 37° C., 20-22 h, read-out: Minimum inhibitory concentration
[12] = Methicillin-resistant Staphylococcus aureus ATCC33591, 37° C., 20-22 h, read-out: Minimum inhibitory concentration
[13] = Acinetobacter baumannii ATCC19606, 37° C., 20-22 h, read-out: Minimum inhibitory concentration
[14] = Staphylococcus aureus ATCC25923, 37° C., 20-22 h, read-out: Minimum inhibitory concentration
[15] = Escherichia coli, ATCC25922, read-out: Minimum inhibitory concentration
[16] = Staphylococcus epidermidis, ATCC12228, read-out: Minimum inhibitory concentration
[17] = Staphylococcus aureus, ATCC29213, read-out: Minimum inhibitory concentration
[18] = Staphylococcus aureus, ATCC33591, read-out: Minimum inhibitory concentration
[19] = Acinetobacter baumannii, ATCC19606, read-out: Minimum inhibitory concentration
[20] = Staphylococcus aureus, ATCC25923, read-out: Minimum inhibitory concentration

SMILES | MIC [1, 9] | MIC [2, 10] | inhibitory effect compared with the three tested positive controls [2] | MIC [3, 11] | MIC [4, 12] | MIC [5, 13] | inhibition compared with tiamulin ([5]; Acinetobacter baumannii) | MIC [6, 14] | IC50 at 24 h ([7]; A549 cells) | IC50 at 24 h ([7]; HEK293 cells) | IC50 at 24 h ([7]; HepG2 cells) | inhibitory activity compared with the three tested positive controls [8] | MIC [1, 15] | MIC [2, 16] | MIC [3, 17] | MIC [4, 18] | MIC [5, 19] | MIC [6, 20]
C=C[C@]1(C)C[C@@H](OC(=O)COC(=O)/C=C/c2ccc([N+](=O)[O-])cc2)[C@]2(C)[C@H](C)CC[C@]3(CCC(=O)[C@H]32)[C@@H](C)[C@@H]1O [Compound 1, (E)-2-(((3aR,4R,5R,8S,9R,12R)-8-hydroxy-4,7,9,12-tetramethyl-3-oxo-7-vinyldecahydro-4,9a-propanocyclopenta[8]annulen-5-yl)oxy)-2-oxoethyl 3-(4-nitrophenyl)acrylate] | 32 µg/mL (≈ 57.8 µM) | 2 µg/mL (≈ 3.61 µM) | better than that of the positive controls | 2 µg/mL (≈ 3.61 µM) | 4 µg/mL (≈ 7.22 µM) | 64 µg/mL (≈ 116 µM) | as much as tiamulin | 8 µg/mL (≈ 14.4 µM) | > 200 µM | > 200 µM | > 200 µM | – | – | – | – | – | – | –
C=C[C@]1(C)C[C@@H](OC(=O)COC(=O)/C=C/c2ccc(OC)cc2)[C@]2(C)[C@H](C)CC[C@]3(CCC(=O)[C@H]32)[C@@H](C)[C@@H]1O [Compound 4, (E)-2-(((3aR,4R,5R,8S,9R,12R)-8-hydroxy-4,7,9,12-tetramethyl-3-oxo-7-vinyldecahydro-4,9a-propanocyclopenta[8]annulen-5-yl)oxy)-2-oxoethyl 3-(4-methoxyphenyl)acrylate] | 32 µg/mL (≈ 59.4 µM) | 2 µg/mL (≈ 3.71 µM) | better than that of the positive controls | 8 µg/mL (≈ 14.9 µM) | 16 µg/mL (≈ 29.7 µM) | > 256 µg/mL | – | 4 µg/mL (≈ 7.43 µM) | 50.8 µM | 90.2 µM | 83.7 µM | – | – | – | – | – | – | –
C=C[C@]1(C)C[C@@H](OC(=O)COC(=O)/C=C/c2cccc(C#N)c2)[C@]2(C)[C@H](C)CC[C@]3(CCC(=O)[C@H]32)[C@@H](C)[C@@H]1O [Compound 5, (E)-2-(((3aR,4R,5R,8S,9R,12R)-8-hydroxy-4,7,9,12-tetramethyl-3-oxo-7-vinyldecahydro-4,9a-propanocyclopenta[8]annulen-5-yl)oxy)-2-oxoethyl 3-(3-cyanophenyl)acrylate] | 64 µg/mL (≈ 120 µM) | 2 µg/mL (≈ 3.75 µM) | better than that of the positive controls | 8 µg/mL (≈ 15 µM) | 16 µg/mL (≈ 30 µM) | 128 µg/mL (≈ 240 µM) | – | 2 µg/mL (≈ 3.75 µM) | > 200 µM | 29.2 µM | 78.5 µM | – | – | – | – | – | – | –
C=C[C@]1(C)C[C@@H](OC(=O)COC(=O)/C=C/c2ccc(N(C)C)cc2)[C@]2(C)[C@H](C)CC[C@]3(CCC(=O)[C@H]32)[C@@H](C)[C@@H]1O [Compound 10, (E)-2-(((3aR,4R,5R,8S,9R,12R)-8-hydroxy-4,7,9,12-tetramethyl-3-oxo-7-vinyldecahydro-4,9a-propanocyclopenta[8]annulen-5-yl)oxy)-2-oxoethyl 3-(4-(dimethylamino)phenyl)acrylate] | 16 µg/mL (≈ 29 µM) | 1 µg/mL (≈ 1.81 µM) | better than that of the positive controls | 2 µg/mL (≈ 3.63 µM) | 2 µg/mL (≈ 3.63 µM) | 32 µg/mL (≈ 58 µM) | as much as tiamulin | 1 µg/mL (≈ 1.81 µM) | > 200 µM | 34.6 µM | > 200 µM | better or equal to that of the three tested positive controls | – | – | – | – | – | –
C=C[C@]1(C)C[C@@H](OC(=O)COC(=O)/C=C/c2ccc(F)c(Cl)c2)[C@]2(C)[C@H](C)CC[C@]3(CCC(=O)[C@H]32)[C@@H](C)[C@@H]1O [Compound 20, (E)-2-(((3aR,4R,5R,8S,9R,12R)-8-hydroxy-4,7,9,12-tetramethyl-3-oxo-7-vinyldecahydro-4,9a-propanocyclopenta[8]annulen-5-yl)oxy)-2-oxoethyl 3-(3-chloro-4-fluorophenyl)acrylate] | 64 µg/mL (≈ 114 µM) | 32 µg/mL (≈ 57 µM) | – | 32 µg/mL (≈ 57 µM) | 64 µg/mL (≈ 114 µM) | > 256 µg/mL | – | 16 µg/mL (≈ 28.5 µM) | – | – | – | – | – | – | – | – | – | –
C=C[C@]1(C)C[C@@H](OC(=O)COC(=O)/C=C/c2ccccc2C(F)(F)F)[C@]2(C)[C@H](C)CC[C@]3(CCC(=O)[C@H]32)[C@@H](C)[C@@H]1O [Compound 21] | > 256 µg/mL | 64 µg/mL (≈ 111 µM) | – | 64 µg/mL (≈ 111 µM) | 128 µg/mL (≈ 222 µM) | > 256 µg/mL | – | 32 µg/mL (≈ 55.5 µM) | – | – | – | – | – | – | – | – | – | –
C=C[C@]1(C)C[C@@H](OC(=O)CS[C@@H]2C[C@H]3CC[C@@H](C2)N3C)[C@]2(C)[C@H](C)CC[C@]3(CCC(=O)[C@H]32)[C@@H](C)[C@@H]1O [Retapamulin, reference compound] | – | – | – | – | – | – | – | – | – | – | – | – | 32 µg/mL (≈ 61.8 µM) | 32 µg/mL (≈ 61.8 µM) | 4 µg/mL (≈ 7.73 µM) | 32 µg/mL (≈ 61.8 µM) | 16 µg/mL (≈ 30.9 µM) | 4 µg/mL (≈ 7.73 µM)
C=C[C@]1(C)C[C@@H](OC(=O)CSCCN(CC)CC)[C@]2(C)[C@H](C)CC[C@]3(CCC(=O)[C@H]32)[C@@H](C)[C@@H]1O [Tiamulin, reference compound] | 128 µg/mL (≈ 259 µM) | 16 µg/mL (≈ 32.4 µM) | – | 256 µg/mL (≈ 518 µM) | 128 µg/mL (≈ 259 µM) | 64 µg/mL (≈ 130 µM) | – | 64 µg/mL (≈ 130 µM) | > 200 µM | 84.9 µM | 27.1 µM | – | – | – | – | – | – | –
C=C[C@]1(C)C[C@@H](OC(=O)CSC(C)(C)CNC(=O)[C@H](N)C(C)C)[C@]2(C)[C@H](C)CC[C@]3(CCC(=O)[C@H]32)[C@@H](C)[C@@H]1O [Valnemulin, reference compound] | – | – | – | – | – | – | – | – | – | – | – | – | 16 µg/mL (≈ 28.3 µM) | 64 µg/mL (≈ 113 µM) | 2 µg/mL (≈ 3.54 µM) | > 256 µg/mL | 2 µg/mL (≈ 3.54 µM) | 4 µg/mL (≈ 7.08 µM)
